Data published in patent publication US20250064740A1, “MULTI-VESICULAR LIPID NANOPARTICLE TOLEROGENIC VACCINES FOR INDUCTION OF SYSTEMIC IMMUNE TOLERANCE IN VIVO” (KARMA BIOTECHNOLOGIES, priority 2022, published 2025).

Experiments:
HepG2 cells = assay: SNIPR [pEGFP] transfection of a liver cell line with caveolin inhibitor; assay type: cell-based; conditions: MbC 15 uM, 1 h pretreatment, 48 h
Jurkat cells = assay: SNIPR uptake/transfection of a T cell line with endocytosis inhibitors; assay type: cell-based; conditions: MbC 15 uM, 1 h pretreatment
[1] = tested on: murine bone marrow-derived macrophages; assay: In vitro immunogenicity: TNFa release by ELISA; assay type: cell-based, mouse; conditions: positive controls
Description: TNFa release was quantitated by ELISA. Bar charts show mean TNFa release per treatment group (n=3 replicates per treatment group). Error bars indicate SEM. Filled circles indicate mean TNFa release for each individual replicate for each treatment group. Colors of filled circles indicate treatment group.

Row | Substance | Transfection of a liver cell line by pDNA-loaded SNIPR nanoparticles in presence of inhibitor (HepG2 cells) | Transfection of a T cell line by pDNA-loaded SNIPR nanoparticles in presence of inhibitor (Jurkat cells) | TNFa release [1]
1 | Methyl-beta-cyclodextrin [MbC] | abrogated | abrogated | –
2 | lipopolysaccharide [LPS] | – | – | strongly elicited
